Source: patent publication US20210063420A1, “Human Neural Organoid Platform for Detecting Drugs of Abuse Disorder Susceptibility and Therapeutic Countermeasure and Non-Addictive Pain Medication Development” (Rene Anand, priority 2019, published 2021)

Tested on: human iPSC-derived brain organoids
Description: All cpm data are normalized data and the reads are a direct representation of the abundance of the RNA for each gene.
Transcriptomic data from these neural organoids were obtained. […] Detailed data analysis using Gene Card and Pubmed data bases were performed.

CN1CCCC1c1cccnc1 (stereo not drawn) [nicotine]
expression of a set of genes for proteins involved in the development of midbrain dopaminergic neurons (VTA and SNpc) (chronic nicotine exposure of human iPSC-derived brain organoids): increases the expression | change in gene expression versus 0 (control) (exposure for 4 weeks to nicotine at 50 nanomolar, 500 nanomolar and 1 micromolar in the growth media, identified responsive genes): greater than 1.4 fold | expression of a subset of genes (Nurr 1, Lmx1a, Lmx1b, Neurog2, OTX2, Nolz1, NDNF) (human neural organoids, preliminary data): upregulated
